From patent publication US8193252B1, “Mesoprogestins (progesterone receptor modulators) for the treatment and prevention of benign hormone dependent gynecological disorders” (Bayer Pharma AG, priority 1999, dated 2012)

Legend:
[1] = biological target: T1, progesterone receptor (PR) (Oryctolagus cuniculus, UniProt P06186); assay: McPhail test, PR agonistic (progestagenic) activity in estradiol-primed juvenile rabbits; type: in vivo, rabbit; details: for maximum progestagenic effect relative to progesterone: dose range 0.003-100 mg/rabbit s.c.
T1 construct: effects of PR-modulators in the uterus of estrogen primed immature rabbits (McPhail test); from tissue; host or cells: uterus (endometrium) of estradiol-primed juvenile rabbits, in vivo
T1 sequence (P06186 1-930): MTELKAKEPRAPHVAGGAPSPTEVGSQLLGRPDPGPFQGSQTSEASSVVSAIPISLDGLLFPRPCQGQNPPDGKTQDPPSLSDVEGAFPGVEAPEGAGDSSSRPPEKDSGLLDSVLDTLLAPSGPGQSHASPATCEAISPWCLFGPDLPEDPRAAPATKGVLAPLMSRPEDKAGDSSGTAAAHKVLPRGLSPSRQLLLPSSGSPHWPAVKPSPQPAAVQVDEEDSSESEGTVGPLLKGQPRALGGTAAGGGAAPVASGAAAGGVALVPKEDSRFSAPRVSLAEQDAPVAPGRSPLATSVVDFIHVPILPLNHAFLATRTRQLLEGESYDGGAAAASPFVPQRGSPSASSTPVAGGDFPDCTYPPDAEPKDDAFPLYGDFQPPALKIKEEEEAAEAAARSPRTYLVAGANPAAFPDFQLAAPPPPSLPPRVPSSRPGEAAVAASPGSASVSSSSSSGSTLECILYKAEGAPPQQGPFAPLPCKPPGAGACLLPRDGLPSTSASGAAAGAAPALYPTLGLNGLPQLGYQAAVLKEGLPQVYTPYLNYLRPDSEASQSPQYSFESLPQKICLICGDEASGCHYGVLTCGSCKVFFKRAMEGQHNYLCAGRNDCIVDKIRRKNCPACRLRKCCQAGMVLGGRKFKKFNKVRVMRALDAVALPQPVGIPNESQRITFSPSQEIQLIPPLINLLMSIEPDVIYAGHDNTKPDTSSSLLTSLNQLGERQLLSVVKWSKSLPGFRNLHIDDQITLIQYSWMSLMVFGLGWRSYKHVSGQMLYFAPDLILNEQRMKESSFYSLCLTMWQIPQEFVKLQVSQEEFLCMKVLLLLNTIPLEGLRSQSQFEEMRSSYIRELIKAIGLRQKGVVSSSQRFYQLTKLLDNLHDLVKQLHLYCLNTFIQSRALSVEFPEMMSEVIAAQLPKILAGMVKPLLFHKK
Procedure: In the classical bioassay, the McPhail test, assessing progestagenic and antiprogestagenic effects in rabbits (Selye H., Textbook of Endocrinology, 1947, pp. 345-346), progesterone produces a maximum McPhail score of 4 (by definition).
The PR antagonistic and agonistic properties of mesoprogestins were assessed in estrogen-primed rabbits in the McPhail test according to Selye (Textbook of Endocrinology, 1947, pp. 345-346).

[2] = tested on: pregnant guinea pigs; assay: Abortifacient / labor inducing activity in pregnant guinea pigs; type: in vivo, guinea pig; details: for abortifacient activity ED50, guinea pig: s.c., treatment day 43-44 of pregnancy, autopsy day 50; for ranking of abortifacient activity: treated on days 43 and 44 of pregnancy, observed until day 50
Procedure: In the guinea pig model which allows a good prediction of the effects in humans with respect to the abortifacient activity (Elger W, Beier S., Chwalisz K, Fähnrich M, Hasan S H, Henderson D, Neef G, Rohde R (1986): Studies on the mechanism of action of progesterone antagonists. J Steroid Biochem 25: 835-845) the mesoprogestins J 867, J 912, J 956, J 1042 lead up to 100 mg/kg/day to a maximal abortion rate of 20%.
(§1) The guinea pig is considered as relevant model of human gestation and parturition (Elger W, Fähnrich M, Beier S, Quing S S, Chwalisz K (1987). Endometrial and myometrial effects of progesterone antagonists in pregnant guinea pigs. Am J Obstet Gynecol 157: 1065-1074; Elger W, Neef G, Beier S, Fähnrich M, Gründel M, Heermann J, Malmendier A, Laurent D, Puri C P, Singh M M, Hasan S H, Becker H (1992). Evaluation of antifertility activities of antigestagens in animal model. In: Puri C P and Van Look P F A (eds), Current Concepts in Fertility Regulation and Reproduction. Wiley Eastern Limited, New Delhi, pp. 303-328; Elger W, Faehnrich M, Beier S, Qing S S, Chwalisz K (1986). Mechanism of action of progesterone antagonists in pregnant guinea pigs. Contraception 6: 47-62; Elger W, Chwalisz K, Faehnrich M, Hasan S H, Laurent D, Beier S, Ottow E, Neef G, Garfield R E (1990). Studies on labor-conditioning and labor-inducing effects of antiprogesterones in animal model. In: Garfield R E (eds), Norwell, pp. 153-175.) The mechanism of abortion of antiprogestins in this species is the initiation of labor and finally the expulsion of the conceptus. Abortifacient effects in the rat during very early pregnancy reflect inhibitory effects on nidation rather than initiation of uterine contractions. Studies in the rat model lead to “overestimation” of the potential of antiprogestins to terminate pregnancy in humans. Conversely, in the guinea pig model, irrespective of the antiprogestin doses, there were high rates of ongoing pregnancies similar to the situation in humans (Elger et al., Current Concepts in Fertility Regulation and Reproduction cited above). Furthermore, in both humans and guinea pigs, there is a strong synergism between antiprogestins and prostaglandins with respect the induction of labor (see the articles cited above and Elger W, Beier S (1983). Prostaglandine and Antigestagene für den Schwangerschaftsabbruch (Prostaglandins and antigestagens for pregnancy termination). German Patent DE 3337450 12; Van Look P, Bygdeman M (1989). Antiprogestational steroids: a new dimension in human fertility regulation. Oxford reviews of reproductive medicine 11: 2-60).
Pregnant guinea pigs were treated on days 43 and 44 of pregnancy and observed until day 50 of gestation. For the effects of various treatments see table 1 and FIG. 2. It is typical for this model that expulsions occur with a delay of several days after treatment. It can be seen that Mesoprogestins have a much reduced abortifacient activity compared to RU486. […] The differences with respect to abortifacient activity seem qualitative ones. It is not possible to overcome the low abortifacient activity of a Mesoprogestin by the use of a higher dose.
FIG. 2 is graphs showing data on the assessment on cumulative rate of abortion until day 50 in guinea pigs treated on days 43 and 44 of pregnancy.

[3] = tested on: pregnant rats; assay: Abortifacient activity in pregnant rats; type: in vivo, rat; details: s.c.; treatment days 5-7 of pregnancy, autopsy day 9; * SAS, probit procedure
Excerpt: as §1

[4] = as described in DE 43 32 283 / DE 43 32 284; cited from earlier work
[5] = tested on: cyclic guinea pigs; details: cited from earlier work
[6] = as described in DE 43 32 283 / DE 43 32 284; cited from earlier work; remark: listed apart in the source
[7] = tested on: uterine fibroids; assay: Treatment of uterine fibroids (Example 5); type: in vivo, human; details: 3-6 months, 5-50 mg
[8] = 4 days s.c. treatment, absence of progesterone

In the case of CCNC(=O)O/N=C/c1ccc([C@H]2C[C@@]3(C)[C@@H](CC[C@]3(COC)OC)[C@@H]3CCC4=CC(=O)CCC4=C32)cc1 [J956, 4-[17β-Methoxy-17α-(methoxymethyl)-3-oxoestra-4,9-dien-11β-yl]benzaldehyd-(1E)-[O-(ethylamino)carbonyl]oxim], the “dose of maximum effect” value [1, 8] is reported as 0.3-1 mg/rabbit, the “maximum effect, McPhail score” value [1, 8] is reported as 1.5 McPhail score and the “shape of dose response in McPhail test” value ([1]; absence of progesterone) is reported as “biphasic response”. For the same molecule, the “maximum progestagenic effect relative to progesterone” value [1] was “Neither mesoprogestin tested (J1042, J867, J956) reached the maximum effect of progesterone”, the “abortifacient activity ED50, guinea pig” value [2] was 20 mg/animal/day and the “ranking of abortifacient activity” value [2] was “RU486>J956>J867, J912>J1042”. For the same molecule, the “abortifacient activity ED50, rat” value [3] was 0.64* mg/animal/day.
With COC[C@]1(OC)CC[C@H]2[C@@H]3CCC4=CC(=O)CCC4=C3[C@@H](c3ccc(/C=N/O)cc3)C[C@@]21C [J867, 4-[17β-Methoxy-17α-(methoxymethyl)-3-oxoestra-4,9-dien-11β-yl]benzaldehyd-(1E)-oxim] the “maximum progestagenic effect relative to progesterone” value [1] was “Neither mesoprogestin tested (J1042, J867, J956) reached the maximum effect of progesterone”, the “abortifacient activity ED50, guinea pig” value [2] was >100 mg/animal/day and the “ranking of abortifacient activity” value [2] was “RU486>J956>J867, J912>J1042”. The “antiglucocorticoid activity compared to RU 486” value [4] was “markedly reduced”, the “abortifacient activity ED50, rat” value [3] was 0.65* mg/animal/day and the uterine weights [5] was “reduced uterine weights”. The antiprogestagenic activity [6] was “strong” and the “pelvic pain during treatment” value [7] was “reduction of pelvic pain was observed”.
For CCSC(=O)O/N=C/c1ccc([C@H]2C[C@@]3(C)[C@@H](CC[C@]3(COC)OC)[C@@H]3CCC4=CC(=O)CCC4=C32)cc1 [J1042, 4-[17β-Methoxy-17α-(methoxymethyl)-3-oxoestra-4,9-dien-11β-yl]benzaldehyd-(1E)-[O-(ethylthio)carbonyl]oxim], the “maximum progestagenic effect relative to progesterone” value [1] was “Neither mesoprogestin tested (J1042, J867, J956) reached the maximum effect of progesterone”, the “abortifacient activity ED50, guinea pig” value [2] was >>100 mg/animal/day and the “ranking of abortifacient activity” value [2] was “RU486>J956>J867, J912>J1042”. The “abortifacient activity ED50, rat” value [3] was >10 mg/animal/day.
